In PubChem BioAssay (NCI):
Where “and” joins values, the source holds several entries; their conditions need not be identical. Equal entries are not always repeated.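 Five compound concentrations were applied to cells in 96-well plates for 48 hours; endpoints were derived by simple linear interpolation of the resulting dose-response curve. Abbreviation: GI50, concentration required for 50% inhibition of growth. TGI is the concentration that stops growth completely.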

How the values were obtained:
Test in all cases: inhibition of tumour cell growth, NCI panel, 48 h
HCC-2998 colon = system: HCC-2998 colon
SF-295 CNS = system: SF-295 CNS
U251 CNS = system: U251 CNS
MDA-MB-231 breast = system: MDA-MB-231 breast
T-47D breast = system: T-47D breast
SNB-75 CNS = system: SNB-75 CNS
OVCAR-5 ovarian = system: OVCAR-5 ovarian
OVCAR-3 ovarian = system: OVCAR-3 ovarian
NCI-H522 lung = system: NCI-H522 lung
TK-10 renal = system: TK-10 renal

Row | SMILES | TGI (HCC-2998 colon) | TGI (SF-295 CNS) | TGI (U251 CNS) | GI50 (MDA-MB-231 breast) [µM] | TGI (MDA-MB-231 breast) | GI50 (T-47D breast) [µM] | TGI (T-47D breast) | TGI (SNB-75 CNS) | TGI (OVCAR-5 ovarian) | GI50 (OVCAR-3 ovarian) [µM] | TGI (OVCAR-3 ovarian) | TGI (NCI-H522 lung) | TGI (TK-10 renal) | GI50 (HCC-2998 colon) [µM] | GI50 (SF-295 CNS) [µM] | GI50 (U251 CNS) [µM] | GI50 (SNB-75 CNS) [µM] | GI50 (OVCAR-5 ovarian) [µM] | GI50 (NCI-H522 lung) [µM] | GI50 (TK-10 renal) [µM]
1 | Cc1cc(O)c2c(c1)C(=O)c1cc(O)cc(O)c1C2=O | > 100 µM | > 83.1 µM | > 96.3 µM | 16.1 | 57.5 µM | 21.2 | > 100 µM | > 81.6 µM | > 100 µM | 14.7 | 42.2 µM | > 66.3 µM | > 81.1 µM |  |  |  |  |  |  | 
2 | O=S(=O)(NC(=S)Nc1ccccc1)c1ccc(N2N=C3c4ccccc4CC3C2c2cccs2)cc1 (stereo unspecified) | 30.8 µM | 41.8 µM | 76.7 µM | 24.8 | 62.3 µM | > 100 | > 100 µM | > 100 µM | 41.1 µM | 17.2 | 46.9 µM | > 100 µM | 39.7 µM | 13.9 | 18.9 | 26.2 | 71.9 | 17.9 | 32.8 | 12.2
3 | Nc1nc2c(c3ncccc13)C(c1cccc(Cl)c1)Cc1ncccc1-2 (stereo unspecified) | 15.1 µM | 11 µM | 15.4 µM | 4.19 | 23.7 µM | 3.28 | 38.5 µM | 8.17 µM | > 100 µM | 1.11 | 4.88 µM | 2.82 µM | 65.7 µM | 2.77 | 2.21 | 2.17 | 1.12 | 6.42 | 0.417 | 8.11
4 | C#CCN1CCN(C(=S)N/N=C(\C)c2ccccn2)CC1 | 4.38 µM | 7.91 µM and 4.8 µM | 4.45 µM |  | 3.54 µM and 5.04 µM |  | 3.6 µM and 4.06 µM | 6.35 µM and 12.7 µM | 4.65 µM and 3.11 µM | 0.00448 | 1.4 µM and 1.2 µM | 6.52 µM and 2.27 µM | 5.5 µM and 6.36 µM |  | 2.11 | 0.0126 |  | 0.14 | < 0.0292 | 1.58
5 | COc1ccc(-c2cnc(-c3ccc(F)cc3)[nH]2)cc1 | 25.1 µM | 3.43 µM | 17.2 µM | 24 | > 77.7 µM | 8.39 | 36.4 µM | 10.7 µM | 43.9 µM | 1.64 | 3.65 µM | > 56.1 µM | 8.81 µM | 7.4 | 1.54 | 6.3 | 4.26 | 12.6 | 20.5 | 2.58
6 | Cn1ccc(=Nc2ccc(NC(=O)c3ccc(N=c4ccn(C)c5ccc([N+](=O)[O-])cc45)cc3)cc2)cc1 | > 100 µM | 72.6 µM | > 100 µM | 6.82 | > 100 µM | 5.27 | > 100 µM | 28.5 µM | > 100 µM | 15.2 | 78.7 µM | > 100 µM | > 100 µM | 3.85 | 12.8 | 0.437 | 3.63 | > 100 | 6.88 | > 100
7 | CCc1cccc(CC)c1NC(=S)NC(=O)c1ccc(Br)cc1 | > 100 µM | > 100 µM | > 100 µM |  | > 100 µM |  | > 100 µM | > 96.6 µM | > 100 µM |  | > 100 µM | 51.3 µM | > 64.1 µM |  |  |  |  |  |  | 
8 | CCOC(=O)/C=C1\SC(=Nc2ccc(C#N)cc2)N(CCN2C(=O)/C(=C/C(=O)OCC)SC2=Nc2ccc(C#N)cc2)C1=O | 6.61 µM | 25.6 µM | 1.94 µM | 2.09 | 7.85 µM | 2.37 | 41.2 µM | 36.1 µM | 30.8 µM | 0.795 | 3.27 µM | 24.3 µM | 36.6 µM | 2.4 | 5.59 | 0.554 | 5.02 | 6.75 | 6.56 | 14.8
9 | Cc1ccc(S(=O)(=O)Oc2ccc3c4c(c(=O)oc3c2)CCCCC4)cc1 | > 100 µM | > 100 µM | > 100 µM | > 100 | > 100 µM | 4.37 | > 100 µM | > 100 µM | > 100 µM |  |  | > 100 µM | > 100 µM | > 100 | > 100 | > 100 | 71.4 | > 100 | > 100 | > 100
10 | N#C/C(=C/C=C(\Cl)c1ccc(Cl)cc1)C(N)=O | 7.71 µM | 3.45 µM | 5.32 µM | 1.97 | 4.82 µM | 3.26 | 26.4 µM |  | 17.7 µM | 0.269 | 1.76 µM | > 62.2 µM | 3.31 µM | 2.66 | 1.65 | 2.29 |  | 4.51 | > 22.7 | 1.61
11 | CO[C@H]1[C@H](O)[C@H](O[C@H]2CC[C@@]3(C)[C@H](CC[C@@H]4[C@@H]3CC[C@]3(C)[C@@H](C5=CC(=O)OC5)CC[C@]43O)C2)O[C@@H](C)[C@@H]1O | 0.0584 µM and 0.0399 µM | 0.00224 µM and < 0.0107 µM | 0.00385 µM and 0.0152 µM |  | 0.00907 µM | 0.00395 | 0.0194 µM | 0.0114 µM and 0.0737 µM |  |  | 0.00116 µM | 0.000282 µM | 0.00345 µM |  |  |  | 0.00233 |  |  | 
